Source: US20240116845A1, “INDENE COMPOUNDS, PHARMACEUTICAL COMPOSITIONS THEREOF, AND THEIR THERAPEUTIC APPLICATIONS” (NucMito Pharmaceuticals Co., Ltd., priority 2021, published 2024)

Legend:
Type in all cases: cell-based
[1] = test system: A431 (epidermoid carcinoma); experiment: Antiproliferative activity, CCK-8 cell viability; conditions: Homo sapiens, A-431, 72 h, read-out: Inhibition of Cancerous Cells, A431; for inhibition at 3.3 µM: compound concentration of 3.3 μM; for inhibition at 10 µM: compound concentration of 10 μM; for inhibition at 30 µM: compound concentration of 30 μM
Description: (§1) The antiproliferative activity of a compound was determined in the following cell lines: MDA-MB-231 (breast cancer), HepG2 (liver cancer), SW480 (colon cancer), B16F10 (malignant melanoma), A431 (epidermoid carcinoma), A549 (lung adenocarcinoma), and HeLa (cervical cancer). MDA-MB-231, HepG2, SW480, B16F10, and A431 cells were cultured in Dulbecco's modified Eagle's medium (DMEM) containing 10% fetal bovine serum (FBS). HeLa cells were cultured in MEM/EBSS (MEM) containing 10% FBS. A549 cells were maintained in Kaighn's modification of Ham's F-12 medium containing 10% FBS. The Cell Counting Kit-8 (CCK-8) assay was used to determine the cell viability of cells following treatment with the compound.
(§2) Briefly, cells were seeded in a 96-well plate at a density of 2,000-5,000 cells/well. Following attachment, the cells were treated with the compound in media at a compound concentration of 3.3 μM, 10 μM, or 30 μM, or DMSO as a control. After the cells were incubated at 37° C. for 72 h, the CCK-8 solution (10 μL) was added to each well. After incubation at 37° C. for 4 h, the absorbance value of each well was determined using a multi-well plate reader at 450 nm. The percentage of cell viability was determined with respect to the DMSO-treated cells. The results were summarized in Table 2-4 below, wherein A represents no less than 50% inhibition of cell growth; B represents less than 50% but no less than 30% inhibition of cell growth; C represents less than 30% inhibition of cell growth.

[2] = test system: A549 (lung adenocarcinoma); experiment: Antiproliferative activity, CCK-8 cell viability; conditions: Homo sapiens, 72 h, read-out: Inhibition of Cancerous Cells, A549; for inhibition at 3.3 µM: compound concentration of 3.3 μM; for inhibition at 10 µM: compound concentration of 10 μM; for inhibition at 30 µM: compound concentration of 30 μM
Description: as §1, §2

SW480 (colon cancer) = experiment: Antiproliferative activity, CCK-8 cell viability; conditions: Homo sapiens, 72 h, read-out: Inhibition of Cancerous Cells, SW480; for inhibition at 3.3 µM: compound concentration of 3.3 μM; for inhibition at 10 µM: compound concentration of 10 μM; for inhibition at 30 µM: compound concentration of 30 μM
Description: as §1, §2

HepG2 (liver cancer) = experiment: Antiproliferative activity, CCK-8 cell viability; conditions: Homo sapiens, 72 h, read-out: Inhibition of Cancerous Cells, HepG2; for inhibition at 3.3 µM: compound concentration of 3.3 μM; for inhibition at 10 µM: compound concentration of 10 μM; for inhibition at 30 µM: compound concentration of 30 μM
Description: as §1, §2

[3] = test system: MDA-MB-231 (breast cancer); experiment: Antiproliferative activity, CCK-8 cell viability; conditions: Homo sapiens, 72 h, read-out: Inhibition of Cancerous Cells, MDA-MB-231; for inhibition at 3.3 µM: compound concentration of 3.3 μM; for inhibition at 10 µM: compound concentration of 10 μM; for inhibition at 30 µM: compound concentration of 30 μM
Description: as §1, §2

HeLa (cervical cancer) = experiment: Antiproliferative activity, CCK-8 cell viability; conditions: Homo sapiens, 72 h, read-out: Inhibition of Cancerous Cells, HELA; for inhibition at 3.3 µM: compound concentration of 3.3 μM; for inhibition at 10 µM: compound concentration of 10 μM; for inhibition at 30 µM: compound concentration of 30 μM
Description: as §1, §2

[4] = test system: B16F10 (malignant melanoma); experiment: Antiproliferative activity, CCK-8 cell viability; conditions: Mus musculus, B16-F10, 72 h, read-out: Inhibition of Cancerous Cells, B16F10; for inhibition at 3.3 µM: compound concentration of 3.3 μM; for inhibition at 10 µM: compound concentration of 10 μM; for inhibition at 30 µM: compound concentration of 30 μM
Description: as §1, §2

[5] = test system: alpha-smooth muscle actin (α-SMA); experiment: Inhibition of TGF-β induced expression of alpha-smooth muscle actin in CFSC cells (western blot); conditions: compound at 10 μM, TGF-β (10 ng/mL), 24 hours
Description: The ability of a compound to inhibit the TGF-β induced expression of alpha-smooth muscle actin (α-SMA) was evaluated in CCl4-treated fat storing (CFSC) cells. α-SMA is considered as a reliable marker of hepatic stellate cell activation and a key biomarker for liver fibrosis.
CFSC cells maintained in a DMEM medium supplemented with 10% fetal bovine serum were seeded to 12-well culture dishes and grown to a confluence of 60-70% the next day. Culture was changed to a serum-free DMEM medium and the cells were treated with the compound at 10 μM in the presence of TGF-β (10 ng/mL). The cells were incubated for another 24 hours. All culture was maintained at 37° C. in 5% carbon dioxide.
An NP-40 lysate solution (50 mM Tris, pH 7.4, 150 mM NaCl, 1% NP-40) with EDTA free cocktail added was used to lyse the cells on ice for 30 min. The lysate was collected and centrifuged at 4° C. for 10 min at 12,000 rpm. The pellet was discarded and the supernatant was transferred to a new tube. The cell lysate was loaded with 5× loading buffer and boiled for 10 min, resolved by 10% SDS-polyacrylamide gel electrophoresis (SDS-PAGE), and transferred to a PVDF membrane. The membrane was blocked with 5% skim milk in Tris-buffered saline and TWEEN® 20 (TBST; 10 mM Tris-HCl, pH 8.0, 150 mM NaCl, 0.1% TWEEN® 20) for 1 h at room temperature and then incubated with α-SMA and β-actin antibodies overnight at 4° C. After washing twice with TBST, the membrane was probed with a […] anti-immunoglobulin (1:5000 dilution) for 1 h at room temperature. After two subsequent rinses in TBST, immunoreactive products were reacted with ECL and visualized by a UVP CHEMSTUDIO™ imaging system. The western blotting bands are quantitated using an ImageJ software. The percentage of inhibition was obtained by calculating the percentage decrease in the band intensity compared to the one treated with TGF-β only.
The results are summarized in Table 1, where A represents a value no less than 80/% inhibition, B represents a value less than 80% but no less than 50% inhibition, C represents a value less than 50% but no less than 30% inhibition, and D represents a value less than 30% inhibition with a compound at 10 μM.

SMILES: CC1=C(CC(=O)O)c2cc(F)ccc2/C1=C\c1cccc(Oc2ccc(Cl)cc2)c1 [Compound D25, 2-[(1Z)-5-Fluoro-2-methyl-1-({3-[4-chlorophenoxy]phenyl}methylidene)-1H-inden-3-yl]acetic acid]
- inhibition at 3.3 µM [1]: < 30%
- inhibition at 10 µM [1]: < 30%
- inhibition at 30 µM [1]: ≥ 50%
- inhibition at 3.3 µM [2]: < 30%
- inhibition at 10 µM [2]: 30 to 50%
- inhibition at 30 µM [2]: ≥ 50%
- inhibition at 3.3 µM (SW480 (colon cancer)): ≥ 50%
- inhibition at 10 µM (SW480 (colon cancer)): ≥ 50%
- inhibition at 30 µM (SW480 (colon cancer)): ≥ 50%
- inhibition at 3.3 µM (HepG2 (liver cancer)): 30 to 50%
- inhibition at 10 µM (HepG2 (liver cancer)): ≥ 50%
- inhibition at 30 µM (HepG2 (liver cancer)): ≥ 50%
- inhibition at 3.3 µM [3]: ≥ 50%
- inhibition at 10 µM [3]: ≥ 50%
- inhibition at 30 µM [3]: ≥ 50%
- inhibition at 3.3 µM (HeLa (cervical cancer)): 30 to 50%
- inhibition at 10 µM (HeLa (cervical cancer)): ≥ 50%
- inhibition at 30 µM (HeLa (cervical cancer)): ≥ 50%
- inhibition at 3.3 µM [4]: 30 to 50%
- inhibition at 10 µM [4]: ≥ 50%
- inhibition at 30 µM [4]: ≥ 50%
- inhibition at 10 µM [5]: ≥ 80%

SMILES: CC1=C(CC(=O)O)c2cc(F)ccc2/C1=C\c1ccc(CCc2ccccc2)cc1 [Compound A8, 2-[(1Z)-5-Fluoro-2-methyl-1-{[4-(2-phenylethyl)phenyl]methylidene}-1H-inden-3-yl]acetic acid]
- inhibition at 3.3 µM [1]: 30 to 50%
- inhibition at 10 µM [1]: ≥ 50%
- inhibition at 30 µM [1]: ≥ 50%
- inhibition at 3.3 µM [2]: < 30%
- inhibition at 10 µM [2]: ≥ 50%
- inhibition at 30 µM [2]: ≥ 50%
- inhibition at 3.3 µM (SW480 (colon cancer)): 30 to 50%
- inhibition at 10 µM (SW480 (colon cancer)): ≥ 50%
- inhibition at 30 µM (SW480 (colon cancer)): ≥ 50%
- inhibition at 3.3 µM (HepG2 (liver cancer)): 30 to 50%
- inhibition at 10 µM (HepG2 (liver cancer)): 30 to 50%
- inhibition at 30 µM (HepG2 (liver cancer)): ≥ 50%
- inhibition at 3.3 µM [3]: 30 to 50%
- inhibition at 10 µM [3]: ≥ 50%
- inhibition at 30 µM [3]: ≥ 50%
- inhibition at 3.3 µM (HeLa (cervical cancer)): < 30%
- inhibition at 10 µM (HeLa (cervical cancer)): < 30%
- inhibition at 30 µM (HeLa (cervical cancer)): ≥ 50%
- inhibition at 3.3 µM [4]: < 30%
- inhibition at 10 µM [4]: < 30%
- inhibition at 30 µM [4]: ≥ 50%
- inhibition at 10 µM [5]: ≥ 80%

SMILES: CC1=C(CC(=O)O)c2cc(F)cc(F)c2/C1=C\c1ccc(Oc2ccc(F)cc2)cc1 [Compound D15, 2-[(1Z)-5,7-Difluoro-2-methyl-1-({4-[4-fluorophenoxy]phenyl}methylidene)-1H-inden-3-yl]acetic acid]
- inhibition at 3.3 µM [1]: < 30%
- inhibition at 10 µM [1]: 30 to 50%
- inhibition at 30 µM [1]: ≥ 50%
- inhibition at 3.3 µM [2]: 30 to 50%
- inhibition at 10 µM [2]: ≥ 50%
- inhibition at 30 µM [2]: ≥ 50%
- inhibition at 3.3 µM (SW480 (colon cancer)): < 30%
- inhibition at 10 µM (SW480 (colon cancer)): ≥ 50%
- inhibition at 30 µM (SW480 (colon cancer)): ≥ 50%
- inhibition at 3.3 µM (HepG2 (liver cancer)): ≥ 50%
- inhibition at 10 µM (HepG2 (liver cancer)): ≥ 50%
- inhibition at 30 µM (HepG2 (liver cancer)): ≥ 50%
- inhibition at 3.3 µM [3]: ≥ 50%
- inhibition at 10 µM [3]: ≥ 50%
- inhibition at 30 µM [3]: ≥ 50%
- inhibition at 3.3 µM (HeLa (cervical cancer)): < 30%
- inhibition at 10 µM (HeLa (cervical cancer)): ≥ 50%
- inhibition at 30 µM (HeLa (cervical cancer)): ≥ 50%
- inhibition at 3.3 µM [4]: < 30%
- inhibition at 10 µM [4]: 30 to 50%
- inhibition at 30 µM [4]: ≥ 50%
- inhibition at 10 µM [5]: ≥ 80%

SMILES: CC1=C(CC(=O)O)c2cc(F)ccc2/C1=C\c1ccc(CN(C)c2ccccc2)cc1 [Compound A9, 2-[(1Z)-5-Fluoro-2-methyl-1-[(4-{[methyl(phenyl)amino]methyl}phenyl)-methylidene]-1H-inden-3-yl]acetic acid]
- inhibition at 3.3 µM [1]: < 30%
- inhibition at 10 µM [1]: ≥ 50%
- inhibition at 30 µM [1]: ≥ 50%
- inhibition at 3.3 µM [2]: ≥ 50%
- inhibition at 10 µM [2]: ≥ 50%
- inhibition at 30 µM [2]: ≥ 50%
- inhibition at 3.3 µM (SW480 (colon cancer)): ≥ 50%
- inhibition at 10 µM (SW480 (colon cancer)): ≥ 50%
- inhibition at 30 µM (SW480 (colon cancer)): ≥ 50%
- inhibition at 3.3 µM (HepG2 (liver cancer)): < 30%
- inhibition at 10 µM (HepG2 (liver cancer)): < 30%
- inhibition at 30 µM (HepG2 (liver cancer)): ≥ 50%
- inhibition at 3.3 µM [3]: 30 to 50%
- inhibition at 10 µM [3]: ≥ 50%
- inhibition at 30 µM [3]: ≥ 50%
- inhibition at 3.3 µM (HeLa (cervical cancer)): < 30%
- inhibition at 10 µM (HeLa (cervical cancer)): 30 to 50%
- inhibition at 30 µM (HeLa (cervical cancer)): ≥ 50%
- inhibition at 3.3 µM [4]: ≥ 50%
- inhibition at 10 µM [4]: ≥ 50%
- inhibition at 30 µM [4]: ≥ 50%
- inhibition at 10 µM [5]: ≥ 80%

SMILES: CC1=C(CC(=O)O)c2cc(F)ccc2/C1=C\c1ccc(Oc2ccc(F)cc2)cc1C [Compound D14, 2-[(1Z)-1-{[2-Methyl-4-(4-fluorophenoxy)phenyl]methylidene}-5-fluoro-2-methyl-1H-inden-3-yl]acetic acid]
- inhibition at 3.3 µM [1]: 30 to 50%
- inhibition at 10 µM [1]: ≥ 50%
- inhibition at 30 µM [1]: ≥ 50%
- inhibition at 3.3 µM [2]: 30 to 50%
- inhibition at 10 µM [2]: ≥ 50%
- inhibition at 30 µM [2]: ≥ 50%
- inhibition at 3.3 µM (SW480 (colon cancer)): 30 to 50%
- inhibition at 10 µM (SW480 (colon cancer)): ≥ 50%
- inhibition at 30 µM (SW480 (colon cancer)): ≥ 50%
- inhibition at 3.3 µM (HepG2 (liver cancer)): 30 to 50%
- inhibition at 10 µM (HepG2 (liver cancer)): 30 to 50%
- inhibition at 30 µM (HepG2 (liver cancer)): ≥ 50%
- inhibition at 3.3 µM [3]: 30 to 50%
- inhibition at 10 µM [3]: ≥ 50%
- inhibition at 30 µM [3]: ≥ 50%
- inhibition at 3.3 µM (HeLa (cervical cancer)): < 30%
- inhibition at 10 µM (HeLa (cervical cancer)): 30 to 50%
- inhibition at 30 µM (HeLa (cervical cancer)): ≥ 50%
- inhibition at 3.3 µM [4]: ≥ 50%
- inhibition at 10 µM [4]: ≥ 50%
- inhibition at 30 µM [4]: ≥ 50%
- inhibition at 10 µM [5]: ≥ 80%
